Values joined by “and” are separate entries in the source; they are usually repeats but may differ in a detail not shown here. Identical values can stand only once. “Also recorded” adds a separate entry of the source.
What was measured:
[1] = target: T1, rat PFTase (Rattus norvegicus, UniProt Q02293+Q04631); assay: Inhibition of farnesyl transferase (fluorescence assay); format: biochemical; settings: mean ± SD of three independent experiments
T1 construct: purchased Jena Biosciences
Procedure: The assay was carried out in 384-well microplates with a final volume of 20 μl by the method modified from the previous report (Long et al., 2009). Briefly, 10 nM of rat PFTase (Jena Biosciences, Jena, Germany) was incubated with the tested compound or DMSO (1%) for 15 min, and then the mixture was added in a solution (50 mM Tris-HCl, pH 7.5, 5 mM MgCl2, 5 mM DTT, 0.1 mM ZnCl2, 0.2% octyl-β-D-glucopyranoside (Sigma, St. Louis, Mo.), 10 μM PFTase substrate dansyl-Gly-Cys-Val-Leu-Ser-OH, and 10 μM farnesyl pyrophosphate (Sigma, St. Louis, Mo.)) to initiate the reaction. The reaction was incubated at 37° C. for 30 min, and the fluorescence was detected by a M5 plate reader (Molecular Devices, CA, USA) at 340 nm excitation and 505 nm emission.

[2] = tested on: macrophages; assay: Morphology of macrophages (photographs, Liu's staining); format: cell-based, human; settings: for cells exhibiting adhesive morphology: 10 μM, FIG. 1 panel A; for morphology of cells by Liu's staining compared with control cells: FIG. 1 panel C
Procedure: (§1) Mononuclear cells (MNCs) were separated from the peripheral blood of healthy donors obtained with written consent by use of Ficoll-Hypaque density centrifugation, followed by positive selection with magnetic anti-CD14 microbeads.
(§2) The isolated CD14^+ cells were cultivated in Minimum Essential Medium (MEM medium) supplemented with 10% fetal bovine serum (FBS), 100 ng/ml granulocyte-macrophage colony-stimulating factor (GM-CSF, Gentaur), and 50 ng/ml interleukin-4 (IL-4, R&D), and kept in an environment of 37° C. with 5% CO2/95% air.
(§3) To evaluate the effects of the present compound on dendritic cells, the CD14^+ cells were respectively treated with 10 μM of test compound (i.e., Mib-5, Mib-6, Mib-7, Mib-8, Mib-9, and Mib-10) on day 1. Then, on day 3, the cultured medium in each well was replenished by adding half the volume of the cultured medium containing the same treatment as indicated above. Then, on day 6, a cytokine cocktail containing IL-1, IL-6, and tumor necrosis factor-α (TNF-α) was added to induce maturation. On day 7, the differentiated dendritic cells were collected and subjected to further assays, including viability assay, morphology observation, and cell marker staining.
(§4) As to the effects of the present compound on macrophages, the CD14^+ cells were cultivated and treated as indicated above except the addition of cytokine cocktail on day 6. The macrophages were collected on day 6 and subjected to further assays, including viability assay, trypan blue exclusion test, morphology observation, cell marker staining, and phagocytotic activity analysis.
(§5) Cells were transferred to a glass coverslide and covered with solution A (0.5 g of methylene blue and 1.7 g of Eosin yellow dissolved in 1,000 ml of ethanol). After 45 seconds, solution B (1.3 g of azure, 1.4 g of methylene blue, 23.38 g of Na2HPO4, 6.5 g of KH2PO4, dissolved in 1,000 ml of distilled water) was added in the proportion of 2 parts of B to 1 part of A. Mixed the solutions well by blowing the surface. The slide was left standing for 90 seconds and then washed off the staining solution rapidly by running water. The morphology of stained cells was then examined under microscope.

[3] = tested on: macrophages; assay: Trypan blue exclusion test on macrophages; format: cell-based; settings: trypan blue analysis, FIG. 2
Procedure: as §1, §2, §3, §4
(§6) The dye exclusion test is used to determine the number of viable cells present in a cell suspension. […] In this test, the cells were first treated with a test compound (i.e., Mib-5, 6, 7, 8, 9 or 10) for a certain period of time (e.g., 72 hours), then the cells were harvested and re-suspended in suitable buffer solution. The cell suspension was then mixed with trypan blue dye and then visually examined to determine whether cells had taken up or excluded the dye. A viable cell will have a clear cytoplasm, whereas a nonviable cell will have a blue cytoplasm. The concentration required to reduce viability by 50% (IC50) after 72 hours was extrapolated from the dose-response curves by different concentrations of the test compound using a second-order polynomial regression model and analyzing with SigmaPlot Software (Systat Software Inc., San Jose, Calif.).

[4] = tested on: M1 macrophages; assay: Differentiation analysis, cell viability of M1 macrophages; format: cell-based, human; settings: for Cell viability of M1 macrophages: LPS-induced M1 differentiation, 6 days, control 100%
Procedure: (§7) M1 differentiation of freshly isolated CD14^+ cells was induced by the addition of lipopolysaccharide (LPS), while M2 differentiation of freshly isolated CD14^+ cells was induced by the addition of IL-4. Then, the present compounds (e.g., Mib-5, 6, 7, 8, 9, or 10) were added at the indicated dosages. 6 days later, the population of the differentiated macrophages were then determined by cell viability analysis. The cell viability was measured by cell counting kit-8 (CCK-8, Sigma). The half maximal inhibitory concentrations (IC50) of the test compounds on macrophages or dendritic cells were calculated.

[5] = tested on: M2 macrophages; assay: Differentiation analysis, cell viability of M2 macrophages; format: cell-based, human; settings: for Cell viability of M2 macrophages: IL-4-induced M2 differentiation, 6 days, control 100%
Procedure: as §7

[6] = tested on: macrophages; assay: Cell marker expression on macrophages (total), flow cytometry; format: cell-based, human; settings: for total expressed level of CD14: FIG. 3; for level of CD206: FIG. 5; for total level of CD80: compared with the control
Procedure: as §1, §2, §3, §4
(§8) The expression of various types of cell markers, such as CD14, CD206, and CD80 expressed on the surface of macrophages, and CD1a, CD14, CD83, and HLA-DR expressed on the dendritic cells, were respectively detected by fluorescein isothiocyanate (FITC) and phycoerythrin (PE)-conjugated monoclonal antibodies in FACS caliber flowcytometer. Monoclonal antibodies used in this examples included anti-CD14 (IgG-FITC), anti-CD206 (IgG-FITC), anti-CD80-PE, anti-CD1a-PE, anti-CD83-PE and anti-human leukocyte antigen (HLA)-DR-PE. Results were analyzed by CellQuest software.

[7] = tested on: M1 macrophages; assay: Cell marker expression on M1 macrophages, flow cytometry; format: cell-based, human; settings: for CD14: M1 population after treatment: Table 5; for CD206 expression on M1 macrophages: control 14.27%; for CD80 expression on M1 macrophages: control 71.34%; for CD14 expression on M1 macrophages: control 99.83%
Procedure: as §7, with “analysis.” for “analysis. The cell viability was measured by cell counting kit-8 (CCK-8, Sigma). The half maximal inhibitory concentrations (IC50) of the test compounds on macrophages or dendritic cells were calculated.”
as §8

[8] = tested on: M2 macrophages; assay: Cell marker expression on M2 macrophages, flow cytometry; format: cell-based, human; settings: for CD14: M2 population after treatment: Table 5; for CD80: change in M2 population: Table 6; for CD80 expression on M2 macrophages: control 47.64%; for CD14 expression on M2 macrophages: control 55.66%; for CD206 expression on M2 macrophages: control 74.49%
Procedure: as §7, with “analysis.” for “analysis. The cell viability was measured by cell counting kit-8 (CCK-8, Sigma). The half maximal inhibitory concentrations (IC50) of the test compounds on macrophages or dendritic cells were calculated.”
as §8

[9] = tested on: macrophages; assay: Phagocytosis assay with fluorescent latex beads; format: cell-based, human; settings: M1 and/or M2 populations, FIG. 6
Procedure: as §4
The phagocytic activity of macrophages was measured by using flow cytometric analysis. The green fluorescent latex beads (carboxylate-modified beads with diameter 2 μm) were suspended in PBS solution and added into macrophage culture for 2 hours with vortexa at 37° C. The macrophages were subjected to flow cytometry for measurement of fluorescent intensity

[10] = tested on: dendritic cells; assay: Trypan blue exclusion analysis of dendritic cells; format: cell-based, human; settings: 10 μM, seven days, FIG. 7
Procedure: as §1, §2, §3, §6
(§9) In this example, the effects of the present compounds on dendritic cells were investigated. Briefly, the dendritic cells were respectively treated with 10 μM of Mib-5, Mib-6, Mib-7, Mib-8, or Mib-10. Seven days later, the cells were harvested and subjected to analysis of morphology observation, cell viability, and/or cell marker expression.

[11] = tested on: dendritic cells; assay: Morphology of dendritic cells by Liu's staining; format: cell-based, human; settings: 10 μM, seven days, FIG. 8
Procedure: as §1, §2, §3, §5, §9

[12] = tested on: dendritic cells; assay: Cell marker expression on dendritic cells, flow cytometry; format: cell-based, human; settings: 10 μM; for expression of CD1a, differentiation marker of dendritic cells: FIG. 9; for expression of CD83, maturation marker of dendritic cells: FIG. 10
Procedure: as §1, §2, §3, §8, §9

IC50 [1]	SMILES	cells exhibiting adhesive morphology [2]	morphology of cells by Liu's staining compared with control cells [2]	cell viability / cytotoxicity toward macrophages [3]	Cell viability of M1 macrophages [4] [%]	Cell viability of M2 macrophages [5] [%]	increase of total level of CD80 as compared with the control [6]	total expressed level of CD14 [6]	level of CD206 [6]	total level of CD80 [6]	CD14: M1 population after treatment [7]	CD206 expression on M1 macrophages [7] [%]	CD80 expression on M1 macrophages [7] [%]	CD14 expression on M1 macrophages [7] [%]	CD14: M2 population after treatment [8]	CD80: change in M2 population [8]	CD80 expression on M2 macrophages [8] [%]	CD14 expression on M2 macrophages [8] [%]	CD206 expression on M2 macrophages [8] [%]	phagocytic activity compared with control [9]	also measured
< 10 µM and 5.05 µM	COC1=CC(=O)[C@@]2(c3cc(=O)c4c(O)cc(O)cc4o3)[C@H](CC=C(C)[C@@H]2C[C@]2(C)[C@@H](C(=O)O)CC=C3[C@H]2CCCC3(C)C)C1=O [Mib-8]	about 20%	not significantly affected	did not adversely affect cell viability; also recorded: no significant cytotoxicity	79.4	100	about 2 folds	not affected	increase	increased	remained relatively unchanged	11.98	60.16	99.73	significant decrease	increase	56.66	62.34	51.05	reduced	reduction in the M1 population ([4]; compared with control, Table 4): about 20%; change in M2 population of macrophages compared with control ([5]; Table 4): no effect; CD80: change in M1 population ([7]; Table 6): reduction; CD206: change in M1 ([7]; Table 7): significant decrease; levels of viable dendritic cells [10]: remained relatively unchanged; dendritic cell morphology compared with control group [11]: did not cause any significant changes; expression of CD1a, differentiation marker of dendritic cells [12]: not; expression of CD83, maturation marker of dendritic cells [12]: not affected
~47 µM and 47 µM	COC1=CC(=O)[C@@]2(c3cc(=O)c4ccc(O)cc4o3)[C@H](C[C@]3(C)[C@@H](C(=O)O)CC=C4[C@H]3CCCC4(C)C)C(C)=CC[C@H]2C1=O [Mib-9]	–	–	–	–	–	–	–	–	–	–	–	–	–	–	–	–	–	–	–	–
~28 µM and 27.9 µM	COC1=CC(=O)[C@@]2(c3cc(=O)c4ccc(O)cc4o3)[C@H](CC=C(C)[C@@H]2C[C@]2(C)[C@@H](C(=O)O)CC=C3[C@H]2CCCC3(C)C)C1=O [Mib-10]	about 20%	not significantly affected	did not adversely affect cell viability; also recorded: no significant cytotoxicity	82.5	145.5	about 2 folds	not affected	increase	increased	remained relatively unchanged	15.17	84.46	99.10	significant decrease	increase	59.89	57.93	68.80	reduced	change in M1 population of macrophages compared with control ([4]; Table 4): decrease; increase of M2 population ([5]; compared with control, Table 4): about 40%; levels of viable dendritic cells [10]: remained relatively unchanged; dendritic cell morphology compared with control group [11]: did not cause any significant changes; expression of CD1a, differentiation marker of dendritic cells [12]: not; expression of CD83, maturation marker of dendritic cells [12]: not affected

Source: US10745370B2, “Farnesyl transferase inhibitors and uses thereof” (MACKAY MEMORIAL HOSPITAL, priority 2016, dated 2020)
